Data reported in publication PMC6753678, “Fueling Open Innovation for Malaria Transmission-Blocking Drugs: Hundreds of Molecules Targeting Early Parasite Mosquito Stages” (Frontiers in Microbiology, 2019).
Read-outs that look alike come from different tables or passages of the source.

What was measured:
HepG2 cells = test: HepG2 cytotoxicity assay; details: for IC50: read-out: HepG2 cytotoxicity assay IC50, dose response confirmation; for Pb ODA (this manuscript) HepG2 cytoxicity: HepG2 cytotoxicity listed with the Pb ODA data set (this manuscript)
In short: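 HepG2 cells, 2,500 per well in MEM with 10% FBS and 1% NEAA, exposed to compounds for 48 h at 37°C, 5% CO2. Viability read by fluorescence; percent inhibition relative to 50 μM doxorubicin and DMSO controls.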

[1] = system: P. berghei ookinete development; details: for % inhibition, Replicate A / % inhibition, Replicate B: primary screen at 1 μM
[2] = system: 3D7-strain P. falciparum asexual parasites; test: P. falciparum asexual growth inhibition assay (Pf GIA); format: cell-based, Plasmodium falciparum; details: dose response confirmation; read-out: Pf asexual growth inhibition assays IC50
In short: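 Steps: seed parasites (0.25% parasitemia, 2% hematocrit) onto compound dilutions; incubate 72 h at 37°C, 5% O2/5% CO2; freeze at −70°C and thaw; add LDH reaction mix, read A650 after 10 min. Percent growth inhibition derived from chloroquine and DMSO controls, averaged over three biological replicates.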

[3] = HepG2 values of the three screens unified
[4] = read-out: Pb ODA IC50, this manuscript
[5] = read-out: Pb Ookinete development assay IC50, dose response confirmation
[6] = unified HepG2 value across the three screens
[7] = read-out: Pb ODA (this manuscript) IC50, P. berghei ookinete development assay, this manuscript

Row | SMILES | Unified cytotox (HepG2 cells; [3]) [µM] | IC50 (HepG2 cells) [µM] | Is compound selective in assay? Pb ODA active? ([1]; 1: YES, 0: NO) | % inhibition, Replicate A [1] [%] | % inhibition, Replicate B [1] [%] | IC50 [1, 4] [nM] | IC50 [1, 5] [nM] | IC50 [2] [nM] | Unified cytotox (HepG2 cells; [6]) [µM] | Pb ODA (this manuscript) HepG2 cytoxicity (HepG2 cells) [µM] | Is compound selective in assay? Pb ODA active? [1] | IC50 [1, 7] [nM] | HepG2 cytoxicity (Pb ODA, this manuscript) (HepG2 cells) [µM]
1 | Cc1[nH]c(C)c(-c2ccc(-c3cccc(Cl)c3)nc2)c(=O)c1Br [TCMDC-136160] | 100.00 | 100 | 1 (1: YES) | 97.52 | 67.64 | 2090 | 2090 | 251 | – | – | – | – | –
2 | Cc1[nH]c(C)c(-c2ccc(-c3ccc4c(c3)OCO4)nc2)c(=O)c1Br [TCMDC-136161] | 100.00 | 100 | 1 (1: YES) | 101.58 | 91.12 | 1430 | 1430 | 646 | – | – | – | – | –
3 | CCCCN(C)CC#Cc1ccc2[nH]c(C)c(Cl)c(=O)c2c1 [TCMDC-136185] | – | 3.09 | 1 (1: YES) | 106.94 | 101.22 | 210 | 207 | 49 | 3.09 | – | – | – | –
4 | Cc1[nH]c2ccc(-c3ccc(N(C)C)cc3)cc2c(=O)c1Cl [TCMDC-136188] | – | 100 | 1 (1: YES) | 79.29 | 60.77 | 550 | 547 | 227 | 100.00 | – | – | – | –
5 | Cc1[nH]cc(Br)c(=O)c1-c1ccc(Oc2ccccc2)cc1 [TCMDC-136196] | 100.00 | 100 | 1 (1: YES) | 91.11 | 82.53 | 370 | 369 | 422 | – | – | – | – | –
6 | COc1ccc2ncc(F)c(CCN3CC[C@H](NCc4cc(C#N)c5c(c4)OCCO5)[C@H](O)C3)c2c1 [TCMDC-136207] | – | 38 | 1 (1: YES) | 67.99 | 58.62 | 750 | 747 | 795 | 38.02 | – | – | – | –
7 | COc1ccc2ncc(F)c(CCN3CCC(NCc4cc(C)c5c(c4)OCCO5)CC3)c2n1.Cl [TCMDC-136209] | – | 21.4 | – | 56.92 | 30.84 | – | 1740 | 449 | – | 21.38 | 1 (key: 1: YES; 0: NO) | 1740 | –
8 | COc1ccc2ncc(F)c(CCN3CCC(NCc4cc(Br)c5c(c4)OCCO5)CC3)c2n1.Cl [TCMDC-136211] | – | 14.5 | – | 36.10 | 50.60 | – | 3400 | 239 | – | 14.45 | 0 (key: 1: YES; 0: NO) | 3390 | –
9 | CCCCN(C)CC#Cc1ccc(-c2ccc3[nH]c(C)c(Br)c(=O)c3c2)cn1 [TCMDC-136285] | – | 100 | 1 (1: YES) | 73.89 | 66.49 | 1020 | 1020 | 1060 | 100.00 | – | – | – | –
10 | Cc1[nH]c(C)c(-c2ccc(-c3cccc(OC(F)(F)F)c3)nc2)c(=O)c1Cl [TCMDC-136286] | 8.51 | 8.51 | 1 (1: YES) | 104.87 | 108.75 | 300 | 303 | 258 | – | – | – | – | 8.51
11 | Cc1[nH]c(C)c(-c2ccc(-c3cccc(Cl)c3)nc2)c(=O)c1Cl [TCMDC-136300] | 56.23 | 56.2 | 1 (1: YES) | 90.77 | 81.67 | 680 | 675 | 203 | – | – | – | – | 56.23
12 | Cc1[nH]c(C)c(-c2ccc(-c3ccc(Cl)cc3)nc2)c(=O)c1Cl [TCMDC-136301] | 100.00 | 100 | 1 (1: YES) | 94.15 | 37.57 | 960 | 963 | 193 | – | – | – | – | –
13 | Cc1[nH]c(C)c(-c2ccc(-c3ccccc3Cl)nc2)c(=O)c1Cl [TCMDC-136303] | 100.00 | 100 | 1 (1: YES) | 118.12 | 98.57 | 230 | 229 | 248 | – | – | – | – | –
14 | COc1ccc2ncc(F)c(NC(=O)C3CCC(NCc4cc5c(F)cccc5[nH]4)CC3)c2n1.Cl (centres unmarked) [TCMDC-136354] | – | 3.63 | – | 86.49 | 82.69 | – | 252 | 475 | – | 3.63 | 1 (key: 1: YES; 0: NO) | 250 | –
15 | COc1ccc2ncc(F)c(NC(=O)C3CCC(NCc4cc5cc(F)cc(F)c5[nH]4)CC3)c2n1.Cl (centres unmarked) [TCMDC-136455] | – | 15.5 | – | 109.55 | 94.56 | – | 1020 | 2430 | – | 15.49 | 1 (key: 1: YES; 0: NO) | 1020 | –
16 | CN1CCN(CC(=O)Nc2ccc(-c3ccc(-c4nc5ccccc5[nH]4)cc3)cc2)CC1 [TCMDC-136979] | – | 21.6 | 0 (0: NO) | 58.34 | 20.87 | 4190 | 4190 | 1110 | 21.63 | – | – | – | –
17 | Cc1cc(=O)c2cc(-c3ccc(OC(F)(F)F)cc3)ccc2[nH]1 [TCMDC-137042] | – | 100 | 1 (1: YES) | 37.82 | 64.25 | 6380 | 6380 | 2190 | 100.00 | – | – | – | –
18 | Cl.c1ccc(Oc2ccc(Nc3nncc4ccccc34)cc2)cc1 [TCMDC-137229] | – | 100 | 1 (1: YES) | 75.48 | 62.89 | 690 | 692 | 544 | 100.00 | – | – | – | –
19 | Cc1c(Cc2ccccc2Br)cnc2nc(N)nc(N)c12.Cl [TCMDC-137244] | – | 0.00776 | – | 44.00 | 63.36 | – | 8490 | 4 | – | 0.00776 | 0 (key: 1: YES; 0: NO) | 8490 | –
20 | Cc1cc(=O)c(-c2ccc(Oc3cccc(Cl)c3)cc2)c(C)[nH]1 [TCMDC-137265] | 3.72 | 3.72 | 0 (0: NO) | 110.80 | 102.47 | 1280 | 1280 | 1850 | – | – | – | – | 3.72
21 | Cc1cc(=O)c(-c2ccc(Oc3cccc(OC(F)(F)F)c3)cc2)c(C)[nH]1 [TCMDC-137266] | – | 10.7 | – | 74.10 | 97.06 | – | 205 | 99 | – | 10.72 | 1 (key: 1: YES; 0: NO) | 200 | –
22 | CCCCCCCCCc1c(C)[nH]c2ccccc2c1=O [TCMDC-137268] | – | 67.6 | – | 77.84 | 91.25 | – | 386 | 168 | – | 67.61 | 1 (key: 1: YES; 0: NO) | 390 | –
23 | CCCCCCCc1c(C)[nH]c2ccc(F)cc2c1=O [TCMDC-137269] | – | 100 | – | 57.79 | 78.85 | – | 319 | 208 | – | 100.00 | 1 (key: 1: YES; 0: NO) | 320 | –
24 | CCC(CC)n1c(C)cc2c3c(N)nc(N)nc3ccc21 [TCMDC-137283] | 0.0017 | 0.0017 | 0 (0: NO) | 93.53 | 103.53 | 850 | 846 | < 0.2 | – | – | – | – | 0.0017
25 | CCN(CC)S(=O)(=O)n1ncc2c3c(N)nc(N)nc3ccc21.Cl [TCMDC-137302] | – | 0.0531 | – | 53.62 | 57.06 | – | 2000 | 79 | – | 0.0531 | 0 (key: 1: YES; 0: NO) | – | –
